Values quoted from earlier work as cited in US6439069B1, “Method and apparatus for detecting subterranean termites” (priority 1999, dated 2002).

Key:
subterranean termites = details: for 20-30 years or more
foraging termites = details: food sources impregnated with 0.5% of the substance

Structure (SMILES) | control of subterranean termites (subterranean termites) [%] | palatability of impregnated food source (foraging termites)
ClC1=C(Cl)C2(Cl)C3C(Cl)C(Cl)CC3C1(Cl)C2(Cl)Cl (stereo not drawn) [chlordane] | 100 | 
O.O.O.O.O=BOB1OB(OB=O)OB2OB([O-])OB([O-])OB(O1)O2.[Na+].[Na+] [disodium octaborate tetrahydrate] |  | acceptably palatable
ClC1=C(Cl)C2(Cl)C3C(Cl)C=CC3C1(Cl)C2(Cl)Cl (stereo not drawn) [heptachlor] | 100 | 
